Measurements taken from US9242992B2, “Crystal form of tricyclic benzopyran compound and production method thereof” (NISSAN CHEMICAL INDUSTRIES, LTD., priority 2009, dated 2016).

Columns and labels:
Assay type in all cases: physicochemical
[1] = Thermostability, humidity stability and photostability tests (total impurities by HPLC); settings: for Total amount of impurities by HPLC, initial value: Test Example 1, before the stability tests
Description: The thermostability, humidity stability and photostability of the A-, B- and F-form crystals of Compound (1) were examined.
The conditions for each test were as follows.
Thermostability test: 60° C., humidity was not controlled, 2 weeks, in air-tight container
Humidity stability test: 25° C., 90% RH, 2 weeks, in opened container
Photostability test: 200 W/m^2·hr, 25° C., 60% RH, 57 hours, in opened container
(§1) In addition, the stability of the crystals was evaluated by the degree of increase of the total amount of impurities by HPLC analysis.

[2] = Solubility, Japanese Pharmacopoeia dissolution test in JP2 pH 6.8; settings: for Solubility: JP2, pH 6.8, 60 minutes, 10 mg in 500 mL, 37° C.
Description: The solubility and the specific surface area of the A-form, B-form, E-form and F-form crystals of Compound (1) were examined.
[Measurement conditions] JP2, pH 6.8 (3.40 g of potassium dihydrogen phosphate and 3.55 g of anhydrous disodium hydrogen phosphate is dissolved in water to obtain 1 liter of solution. The 1 volume of the solution is mixed with the 1 volume of water to obtain JP2, pH 6.8.), 60 minutes
according to the Japanese Pharmacopoeia fifteenth edition, dissolution test (Protocol of the dissolution test; sample amount: 10 mg, test solution: JP2, pH 6.8, 500 mL, sampling point: 5, 15, 30, 60 min, paddle rotational speed: […], bath temperature: 37° C.)

[3] = Specific surface area by BET method (nitrogen adsorption); settings: for Specific surface area: BET, adsorption temperature 77K, equilibrium time 300 seconds
Description: [Measurement conditions] adsorption temperature: 77K, adsorption equilibrium time: 300 seconds
[Measured value unit] square meter/gram
The measurement was performed by the BET method using the nitrogen adsorption in liquid nitrogen after a pre-treatment in refluxed liquid nitrogen.

[4] = Acceleration test (total impurities by HPLC); settings: for Total amount of impurities by HPLC, measured value after test / Increase of impurities in acceleration test (in words): 40° C., 75% RH, 6 months, air-tight container; for Total amount of impurities by HPLC, initial value: Test Example 2, before the acceleration test
Description: The A-, B- and E-form crystals of Compound (1) were subjected to an acceleration test. The conditions for the test were as follows.
Acceleration test: 40° C., 75% RH, 6 months, in an air-tight container
as §1

[5] = High-temperature XRD measurement
Description: The A-form and B-form crystals of Compound (1) were subjected to the high-temperature XRD measurement.
As shown in FIG. 8 and FIG. 9, there was observed no change until 100° C. in the powder X-ray diffractogram of the A-form crystal and until 60° C. in the powder X-ray diffractogram of the B-form crystal.

[6] = Water adsorption analysis; settings: 25° C., sample 0.2 g, pre-treatment 60° C. 20 hours
Description: The A-, B- and E-form crystals of Compound (1) were evaluated by water adsorption analysis.
[Measurement conditions] sample amount: 0.2 g; pre-treatment: 60° C., 20 hours; temperature 25° C., Volumetric adsorption apparatus (trade name: BELSORP 18 manufactured by BEL Japan, Inc.) was used.

| Total amount of impurities by HPLC, initial value [1] [%] | Solubility [2] [%] | Specific surface area [3] [square meter/gram] | Total amount of impurities by HPLC, measured value after test [4] [%] | Total amount of impurities by HPLC, initial value [4] [%] | Temperature until which no change was observed in the powder X-ray diffractogram [5] [°C] | Adsorption of water (in words) [6] | Specific surface area (in words) ([3]; BET method) | Increase of impurities in acceleration test (in words) [4] | Increase of impurities under the conditions (in words) ([1]; thermostability, humidity stability and photostability tests) | Adsorption of water (in words) ([6]; listed as A-form) | Solubility in the JP2 solution (in words) ([2]; JP2, pH 6.8) | SMILES |
| --- | --- | --- | --- | --- | --- | --- | --- | --- | --- | --- | --- | --- |
| 0.25 | 30 |  |  |  |  |  |  |  |  |  |  | Cc1cc(CO)nc2cc3c(cc12)OC(C)(C)[C@H](O)[C@H]3NCCc1ccccc1 [F-form crystal, (3R,4S)-7-hydroxymethyl-2,2,9-trimethyl-4-(phenethylamino)-3,4-dihydro-2H-pyrano[2,3-g]quinolin-3-ol] |
| 0.84 | 36 | 0.7 | 0.80 | 0.70 | 100 | less than that on E-form crystal | high value | no increase of impurities | no increase of impurities | no adsorption of water | high solubility | Cc1cc(CO)nc2cc3c(cc12)OC(C)(C)[C@H](O)[C@H]3NCCc1ccccc1 [A-form crystal, (3R,4S)-7-hydroxymethyl-2,2,9-trimethyl-4-(phenethylamino)-3,4-dihydro-2H-pyrano[2,3-g]quinolin-3-ol] |
|  | 23 | 0.3 | 0.64 | 0.64 |  | no adsorption of water |  | no increase of impurities |  |  |  | Cc1cc(CO)nc2cc3c(cc12)OC(C)(C)[C@H](O)[C@H]3NCCc1ccccc1 [E-form crystal, (3R,4S)-7-hydroxymethyl-2,2,9-trimethyl-4-(phenethylamino)-3,4-dihydro-2H-pyrano[2,3-g]quinolin-3-ol] |

| SMILES | Total amount of impurities by HPLC, initial value [1] [%] | Solubility [2] [%] | Specific surface area [3] [square meter/gram] | Total amount of impurities by HPLC, measured value after test [4] [%] | Total amount of impurities by HPLC, initial value [4] [%] | Temperature until which no change was observed in the powder X-ray diffractogram [5] [°C] | Adsorption of water (in words) [6] | Specific surface area (in words) ([3]; BET method) | Increase of impurities in acceleration test (in words) [4] | Increase of impurities under the conditions (in words) ([1]; thermostability, humidity stability and photostability tests) | Adsorption of water (in words) ([6]; listed as A-form) | Solubility in the JP2 solution (in words) ([2]; JP2, pH 6.8) |
| --- | --- | --- | --- | --- | --- | --- | --- | --- | --- | --- | --- | --- |
| Cc1cc(CO)nc2cc3c(cc12)OC(C)(C)[C@H](O)[C@H]3NCCc1ccccc1 [B-form crystal, (3R,4S)-7-hydroxymethyl-2,2,9-trimethyl-4-(phenethylamino)-3,4-dihydro-2H-pyrano[2,3-g]quinolin-3-ol] | 0.55 | 27 | 0.3 | 1.15 | 0.42 | 60 | the adsorption of water was observed, the adsorption was reversible |  |  |  |  |  |
